# Test results reported in US20240285615A1, “MEDICAMENTS COMPRISING GLYCOSIDASE INHIBITORS” (priority 2021, published 2024).
# Where two headings read alike, the source gives them in different places.
# Columns and labels:
# [1] = tested on: hTauP301L-Tg mouse model of tauopathy; assay: In vivo effect on the hTauP301L-Tg mouse model of tauopathy; details: hTauP301L-Tg mice
# Text: Concomitant to the pathology, these mice progressively develop motoric deficits like clasping behaviour accompanied by a diminution of general mobility, and die prematurely at the age of 8-11 months (reMYND unpublished data, Terwel et al., 2005).
# [2] = tested on: patients with probable PSP Richardson's syndrome; assay: Phase 2 clinical trial, dose extension (Example 7); type: in vivo, human; details: 300 mg, 150 mg or 75 mg TID PO
# Experimental: The study design of this Example 7 is analogous to the study described in Example 6, a randomized, multi-centre, double-blind, placebo-controlled trial to study the safety and tolerability of compound (I) in patients with probable PSP Richardson's syndrome. Approximately 40 patients (40 to 85 years of age, inclusive) are randomized in a 2:1:1:1 ratio to 300 mg or 150 mg or 75 mg or placebo TID PO, with or without food.
# [3] = Phase 1 Part 1b: food effect, single 300 mg dose fasted/fed, plasma pharmacokinetics; type: in vivo, human; details: for Tmax / AUC(0-inf) / Cmax / half-life: human, plasma; for AUC(0-inf) / Cmax / half-life: arithmetic mean
# Experimental: The study was a single-centre, randomized, placebo-controlled single- and multiple ascending dose study in healthy male and female (no childbearing potential) volunteers aged 18-80 years. Study objectives were safety, tolerability, food effect and pharmacokinetics. Following identification of safe and tolerable single doses in healthy male subjects aged 18-55 years, separate cohorts were dosed to assess food effect. Furthermore, multiple-dose safety, tolerability, pharmacokinetics, CSF drug levels and pharmacodynamics were assessed in elderly (age 55-80 years) male or healthy non-child-bearing potential female volunteers. [table]
# [4] = tested on: acute glaucoma-induced I/R injury; assay: In vivo treatment efficacy on acute glaucoma induced ischemia-reperfusion (I/R) model; set-up: species or system Sprague-Dawley (SD) rats; details: SD rats, oral, 7 days after I/R injury
# Experimental: The efficacy of compound of formula (I) is evaluated in the acute glaucoma animal model. Eight-week-old male Sprague-Dawley (SD) rats weighing 250 to 300 g are housed in a temperature- and humidity-controlled animal room under a 12-hour light/12-hour dark cycle, with food and water provided ad libitum. Before any experiment, animals are allowed for one week of acclimatization. The SD rats are randomly allocated to control group and/or treatment groups. Compound of formula (I) is administrated by oral (gavage) route. Two protocols are considered, where the treatment is initiated 24 hours before or 1 hour after the induction of acute glaucoma-induced I/R injury.
# To induce I/R injury, a general anesthesia is induced via i.p. injection of a mixture of 50 mg/kg of ketamine and 2 mg/kg of xylazine. Corneal analgesia is administered using a drop of topical 0.5% proparacaine hydrochloride ophthalmic solution, and pupillary dilatation is maintained with 0.5% tropicamide and 0.5% phenylephrine. After analgesia and dilation of the pupil, the anterior chamber of the left eye is cannulated with a 30-gauge needle connected to a saline reservoir at 150 cm above the eye, leading to a high intraocular pressure (IOP) of 110 mm Hg. The presence of retinal ischemia is examined by the fundus. The cannulation is lasting 60 minutes. After removing the infusion needle from the anterior chamber, the IOP returns to normal. Antibiotic ophthalmic gel with tobramycin is topically applied to the eye before and after the procedure. The rats are sacrificed 7 days after I/R injury to observe the long-term effect of the compound of formula (I) treatment. After collection, the thickness of the retinas is examined by histological staining (Mayer P, (1896), Mitt. zool. Stn. Neapel., 12, 303). The number of retinal ganglion cells is also quantified by immunohistochemistry. Finally, the function of the retina is also evaluated 7 days after I/R injury by electroretinography (ERG).
# DSS colitis model = assay: In vivo treatment efficacy on DSS colitis model; details: balb/c mice, oral gavage for 21 days, 5% DSS
# Experimental: The dextran sodium sulfate (DSS) is a negatively charged sulfated polysaccharide of approximately 36-50 kDa which induces colitis when administered at 5% (weight/volume) in drinking water for several days (Okayasu I. et al. (1990) Gastroenterology 98:694-702).
# Adult (balb/c) mice are randomized and are allowed to a period of acclimatization for one week. After this, the compound of formula (I) or vehicle is administered for 21 days by oral gavage, starting 2 weeks before the DSS treatment (Day −14) and continuing during DSS treatment and until the end of the experiment (Day +9). At Day 0, animals are getting access to a 5% (weight/volume) DSS solution in drinking water until Day +5. The DSS solution is then removed and replaced by drinking water for 4 more days until Day +9. From Day 0 until the end of the experiment […], animals are monitored daily for clinical signs of colitis including bodyweight loss, loose stools and/or diarrhoea and presence of occult or gross blood in the stools. At Day +12 or when animals reach humane endpoints, colons are dissected out, to measure their lengths and observe their content. A sample of distal colon is processed for histopathology. […]
# Histological injury and inflammation are scored as described in Gilbert et al (2012) (Gilbert S. et al. (2012) EMBO Mol. Med. 4: 109-124). […]
# [5] = po, single oral dose 300 mg, fasted condition, healthy elderly subjects
# [6] = po, single oral dose 300 mg, fed condition, healthy elderly subjects
smiles,measurement,setting,value
CC(=O)Nc1nnc(N2CCN([C@@H](C)c3ccc4c(c3)OCO4)CC2)s1 [Compound (I)],extent of neuronal pathology,[1],diminishing the extent of neuronal pathology
same,"motoric function (clasping behaviour, beam walk)",[1],improvement in motoric function
same,survival rate,[1],significant benefit in survival rate
same,"efficacy, safety and tolerability of the preferred dosage regimen",[2],"especially effective, safe and well tolerated"
same,"overall exposure via AUC0-t and AUC0-inf, fed versus fasted",[3],comparable
same,"difference of exposure (AUC) and Cmax, healthy elderly versus healthy young cohort",[3]; fasted state,15%
same,Cmax in fed state as share of Cmax in fasted state,[3]; healthy elderly subjects,about 60%
same,delay of absorption in fed state,[3]; healthy elderly subjects,approximately 3 hours
same,exposure (AUC) in fed state as share of exposure in fasted state,[3]; healthy elderly subjects,approximately 90%
same,Tmax,"[3]; oral, fasted condition, read-out: median Tmax",1 h
same,Tmax,"[3]; oral, with high-fat, high-calorie meal, read-out: median Tmax",4 h
same,AUC(0-inf),[3]; [5],17100 ng·h/mL
same,Cmax,[3]; [5],4160 ng/mL
same,half-life,[3]; [5],7.27 h
same,Tmax,"[3]; po, single oral dose 300 mg, fasted condition, healthy elderly subjects, median (min, max), read-out: Tmax",1 h
same,AUC(0-inf),[3]; [6],15100 ng·h/mL
same,Cmax,[3]; [6],2410 ng/mL
same,half-life,[3]; [6],7.06 h
same,Tmax,"[3]; po, single oral dose 300 mg, fed condition, healthy elderly subjects, median (min, max), read-out: Tmax",4 h
same,number of retinal ganglion cells by immunohistochemistry,[4],increase number of retinal ganglion cells
same,retinal function by electroretinography,[4],improving retinal function
same,thickness of the retina by H&E staining,[4],mitigating the reduction of thickness of the retina
same,"disease score (body weight loss, stool, blood in feces, general appearance)",DSS colitis model,decrease in the disease score
same,tissue inflammation by histology examination,DSS colitis model,significant decrease of tissue inflammation
